The results in this text go back to patent publication US20230046998A1, “COMPOSITION FOR PREVENTING OR TREATING KELOID” (CHUNGNAM NATIONAL UNIVERSITY HOSPITAL, priority 2021, published 2023).

Assay [1] deals with normal skin tissue-derived fibroblasts. Description: Cell viability of normal skin tissue-derived fibroblasts after TUDCA treatment (WST-1). It is filed as cell-based, human. The following applies: 12 hours after exposure to TUDCA; smaller effect than in keloid fibroblasts (FIG. 5C). Here is the method:
(§1) Human keloid-derived fibroblasts and normal skin-derived fibroblasts were cultured in Dulbecco's modified Eagle's medium (DMEM; Invitrogen), 10% fetal bovine serum (FBS; Hyclone, Logan, Utah, USA), 100 U/mL penicillin and 100 µg/mL streptomycin (Invitrogen) media at 5% CO2. Keloid-derived fibroblasts are placed 1×10^4/well on 96-well plates, after treatment with tauroursodeoxycholic acid (TUDCA; Merck Millipore, Billerica, Mass., USA) for 24 hours, cell proliferation was measured with an enzyme-linked immunosorbent assay reader using a 450 nm WST-1 (Roche Diagnostics Corporation, Indianapolis, Ind., USA) assay.
(§2) After treatment with TUDCA, the viability of human keloid tissue-derived fibroblasts and normal skin tissue-derived fibroblasts was evaluated.

The test system of assay [2] is rabbit ear scar (keloid animal model). Briefly: Rabbit ear scar model, intralesional injection. It is filed as in vivo, New Zealand white rabbit. The protocol:
Animal studies were performed with the approval of the Preclinical Research Center (CNUH-019-A0079) of Chungnam National University Hospital. A 12-month-old female New Zealand white rabbit weighing about 4 kg was purchased from Damul Science (Daejeon, Korea), and all rabbits were kept individually in cages and received humane care according to institutional guidelines. After anesthetizing rabbits with a mixture of ketamine (60 mg/kg) and xylazine (5 mg/kg), the side ear hairs were shaved, disinfected with povidone-iodine, and then anesthetized. Next, after using a 10 mm biopsy punch to make 2 circular wounds with a diameter of 10 mm on the ventral surface of each ear, and covering the wound with an adhesive polyurethane dressing (Tegaderm; 3M, Minneapolis, Minn., USA), and once a day, the wound areas were disinfected with physiological saline and observed, and the adhesive polyurethane dressing was replaced. After wound formation, a simple dressing was maintained for 20 days to form a thick scar tissue, and on days 20 and 25 after wounding, saline, steroid (10 mg/mL) or TUDCA (10 mg/mL) was administered to the dermal region of the rabbit ear scar using a 30-gauge syringe (FIG. 1).
6. Scar Elevation Index (SEI) Calculation (Methods for Evaluating Keloid Tissue) SEI gives the ratio of total hypertrophic scar area to normal tissue present beneath the scar. In the present invention, the region where the cartilage layer is left as it is and the skin layer is excised is the B region. Area A contains an excessive amount of soft tissue compared to the surrounding normal dermal layer. An SEI greater than 1 indicates the formation of hypertrophic scars, keloids (FIG. 2).
Next, the efficacy of TUDCA for keloid improvement in a rabbit ear scar model was investigated.
On days 20 and 25 after wounding, normal saline (NS), steroids (10 mg/mL) or TUDCA (10 mg/mL) were injected into the scar dermis.

Assay [3] has as its system COL1A2 and ER stress-related gene expression in human keloid tissue-derived fibroblasts. Description: COL1A2 and ER stress-related gene expression in TUDCA-treated keloid fibroblasts. It is filed as cell-based. The following applies: TUDCA-treated human keloid tissue-derived fibroblasts (FIG. 5B).
Assay [4] deals with keloid pathway markers p-SMAD2/3 and TGFβ1. Briefly: Western blotting of keloid pathway markers in fibroblasts. It is filed as cell-based, human. Particulars: significant difference in keloid-derived versus normal skin-derived fibroblasts (FIG. 5D). Here is the method: Tissues were homogenized using a TissueLyzer II (Qiagen, Hilden, Germany). Cells and tissues were lysed in RIPA buffer (30 mM Tris [pH 7.5], 150 mM sodium chloride, 1 mM sodium phenylmethylsulfonyl fluoride, 1 mM sodium orthovanadate, 1% Nonidet P-40, 10% glycerol, phosphatase and protease inhibitors). Western blot analysis was performed with 40 μg of protein using a commercially available antibody. Anti-CHOP, anti-pERK, anti-ERK, anti-IRE1α, anti-pIRE1α, anti-pSMAD2/3 and anti-β-actin antibodies were purchased from Cell Signaling Technology (Beverly, Mass., USA). Anti-COL1A1, anti-ATF4, anti-TGFβ1, anti-IL-1 antibodies and secondary antibodies were purchased from Santa Cruz Biotechnology (Santa Cruz, Calif., USA) was used. Immune response bands were visualized by enhanced chemiluminescence (ECL) (Bio-Rad, Hercules, Calif., USA), and images were scanned using an Odyssey imaging system and quantified using Image Studio Digits (LI-COR Biosciences, Lincoln, Nebr., USA).
Human keloid-derived fibroblasts and normal skin-derived fibroblasts were cultured in Dulbecco's modified Eagle's medium (DMEM; Invitrogen), 10% fetal bovine serum (FBS; Hyclone, Logan, Utah, USA), 100 U/mL penicillin and 100 µg/mL streptomycin (Invitrogen) media at 5% CO2. […]
as §2

In assay [5] the test system is human keloid tissue-derived fibroblasts. Description: Cell viability of human keloid tissue-derived fibroblasts after TUDCA treatment (WST-1). It is filed as cell-based. Particulars: 6 hours, 12 hours, and 24 hours after TUDCA treatment (FIG. 5A). The protocol: as §1, §2

For `C[C@H](CCC(=O)NCCS(=O)(=O)O)[C@H]1CC[C@H]2[C@@H]3[C@@H](O)C[C@@H]4C[C@H](O)CC[C@]4(C)[C@H]3CC[C@]12C` [TUDCA, tauroursodeoxycholic acid], the “viability of normal skin tissue-derived fibroblasts” value in assay [1] is on record as “decreased”. For the same compound, the “gross appearance / healing of rabbit ear scars” value in assay [2] (10 mg/mL injected into scar dermis on days 20 and 25 after wounding, compared with saline group (FIG. 7)) is on record as “healed better”. In addition, the “Scar Elevation Index (SEI)” value in assay [2] (10 mg/mL intralesional, days 20 and 25, control group 2.778±0.346, p=0.0263 steroid, p=0.0098 TUDCA vs control) came to 1.586±0.074. The “irregular fiber deposition in scar tissue (H&E)” value in assay [2] (10 mg/mL intralesional, days 20 and 25, tissue collected day 34, compared to saline group (FIG. 8)) was “significantly reduced”. For the same compound, the “decrease in SEI compared with the steroid group” value in assay [2] (rabbit ear scar model, p=0.0215) is recorded as “significantly greater decrease”. Further, in assay [3], the “COL1A2 gene expression level” value is “significantly reduced” and the “ER stress-related gene expression levels” value is given as “significantly reduced”. For the same compound, in assay [4], the “level of TGFβ1” value is reported as “reduced” and the “level of p-SMAD2/3” value is “reduced”. Further, in assay [5], the cell viability entry was “significantly decreased”.
